Source: patent US20240342167A1, “INHIBITORS OF PORCINE REPRODUCTIVE AND RESPIRATORY SYNDROME VIRUS” (University of Connecticut, priority 2023, published 2024)
“Also recorded” adds a separate entry of the source.

Legend:
[1] = biological target: T1, PPI between PRRSV glycoprotein GP2a and CD163-SRCR5 (Sus scrofa, UniProt Q2VL90); test: BiFC assay GP2a/SRCR5; format: cell-based, porcine CD163; PRRSV VR2332; details: 5 μM; for Average GP2a (relative fluorescence intensity, SRCR5/GP2a BiFC): HEK293T, 24 h after transfection, relative to NC (DMSO) = 1.00, n=3
T1 construct: SRCR5 domain of porcine CD163 receptor was amplified from cDNA of pig cells; expressed in transfected cells; host or cells: HEK293T
Experimental: (§1) HEK293T cells were cultivated in 6-well plates in FP medium and transfected with 1 μg XpBiFC-VN155 (I152L)-SRCR5 and 1 μg pBiFC-VC155-GP2/GP4 using Fugene6. After 4 h, cells were digested with 0.05% Typsin-EDTA (ThermoFisher Scientific, MA, USA)) and passaged to 48-well plates which were coated with EmbryoMax 0.1% Gelatin Solution (Sigma-Aldrich, MO, USA) and preloaded with 5 μM B7 analogues. Fluorescence images were taken at 24 h after transfection and fluorescence intensity was measured by image J.

[2] = biological target: T2, PPI between PRRSV GP4 and CD163-SRCR5 domain (Sus scrofa, UniProt Q2VL90); test: BiFC assay GP4/SRCR5; format: cell-based, porcine CD163; PRRSV VR2332; details: for Average GP4 (relative fluorescence intensity, SRCR5/GP4 BiFC): 5 μM, HEK293T, 24 h after transfection, relative to NC (DMSO), n=3
T2 construct: SRCR5 domain of porcine CD163 receptor was amplified from cDNA of pig cells; expressed in transfected cells; host or cells: HEK293T
Experimental: as §1

[3] = test system: PRRSV strains NADC30, VR-2332 and Lelystad; test: PRRSV infection assay in PAMs, qRT-PCR for PRRSV; format: cell-based; details: for inhibitory effect against PRRSV infection (in words): 15 μM, PAMs, qRT-PCR; for antiviral potency, SAR comparison (in words): qRT-PCR and titration in infected PAMs, compared with B7, B7-A4 or G7
Experimental: PAMs were cultivated in 12-well plates and infected with PRRSV NADC30 strain or Lelystad strain at MOI=0.05 for 1 h. Cells were then incubated with 15 μM B7 analogues for 24 h at 37° C. RNAs were extracted from the PAMs for quantitative reverse transcription-PCR (qRT-PCR) using RNeasy Mini Kits (Qiagen, MD, USA) and supernatants of cells were collected PRRSV titration assay.
RNAs isolated from infected PAMs were reversely transcribed to cDNA using iScript™ cDNA Synthesis Kit (Bio-Rad Laboratories, CA, USA). Specific qRT-PCR primers for ORF7 gene of PRRSV NADC30 and Lelystad strains, and for porcine GAPDH are shown in the Table S2 qRT-PCR reaction was conducted with SYBR Green Supermix (Bimake, TX, USA) using the ABI 7500 Fast Platform (Thermo Fisher Scientific, MA, USA). GAPDH served as the house keeping gene for normalization.

T2 sequence (Q2VL90 477-577): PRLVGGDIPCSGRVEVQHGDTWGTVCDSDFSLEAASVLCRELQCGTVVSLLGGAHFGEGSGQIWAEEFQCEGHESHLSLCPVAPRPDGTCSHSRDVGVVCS
T1 sequence (Q2VL90 477-577): as above

O=S(=O)(Nc1nc2ccccc2nc1Nc1cccc(S(=O)(=O)N2CCCC2)c1)c1ccccc1 [C6]
Average GP2a (relative fluorescence intensity, SRCR5/GP2a BiFC) [1]: 0.19 | Average GP4 (relative fluorescence intensity, SRCR5/GP4 BiFC) [2]: 0.34 | inhibitory effect against PRRSV infection (in words) [3]: mild

COc1ccc(Nc2nc3ccccc3nc2NS(=O)(=O)c2ccc(F)cc2C)cc1 [A1]
Average GP2a (relative fluorescence intensity, SRCR5/GP2a BiFC) [1]: 0.63 | Average GP4 (relative fluorescence intensity, SRCR5/GP4 BiFC) [2]: 0.89

Cc1ccc(Nc2nc3ccccc3nc2NS(=O)(=O)c2ccc(F)cc2C)cc1 [H1]
Average GP2a (relative fluorescence intensity, SRCR5/GP2a BiFC) [1]: 0.24 | Average GP4 (relative fluorescence intensity, SRCR5/GP4 BiFC) [2]: 0.94

O=S(=O)(Nc1nc2ccccc2nc1Nc1cccc(S(=O)(=O)N2CCCCC2)c1)c1ccccc1 [G4]
Average GP2a (relative fluorescence intensity, SRCR5/GP2a BiFC) [1]: 0.04 | Average GP4 (relative fluorescence intensity, SRCR5/GP4 BiFC) [2]: 0.06 | antiviral potency, SAR comparison (in words) [3]: significantly decreased its antiviral potency

Cc1cccc(S(=O)(=O)Nc2nc3ccccc3nc2Nc2cccc(S(=O)(=O)N3CCCCC3)c2)c1 [E10]
Average GP2a (relative fluorescence intensity, SRCR5/GP2a BiFC) [1]: 0.06 | Average GP4 (relative fluorescence intensity, SRCR5/GP4 BiFC) [2]: 0.06 | antiviral potency, SAR comparison (in words) [3]: no change in antiviral potency

Cc1ccccc1S(=O)(=O)Nc1nc2ccccc2nc1Nc1ccc(S(=O)(=O)N2CCOCC2)cc1 [D2]
Average GP2a (relative fluorescence intensity, SRCR5/GP2a BiFC) [1]: 0.07 | Average GP4 (relative fluorescence intensity, SRCR5/GP4 BiFC) [2]: 0.23 | antiviral potency, SAR comparison (in words) [3]: mildly but significantly decreased

Cc1cccc(S(=O)(=O)Nc2nc3ccccc3nc2Nc2cccc(F)c2)c1 [C10]
Average GP2a (relative fluorescence intensity, SRCR5/GP2a BiFC) [1]: 0.33 | Average GP4 (relative fluorescence intensity, SRCR5/GP4 BiFC) [2]: 0.63

Cc1cc(F)ccc1S(=O)(=O)Nc1nc2ccccc2nc1Nc1ccccc1 [G7]
Average GP2a (relative fluorescence intensity, SRCR5/GP2a BiFC) [1]: 0.15 | Average GP4 (relative fluorescence intensity, SRCR5/GP4 BiFC) [2]: 0.71 | antiviral potency, SAR comparison (in words) [3]: much lower antiviral effect compared with B7; also recorded: obvious loss of the antiviral activity compared with B7

Cc1cc(F)ccc1S(=O)(=O)Nc1nc2ccccc2nc1Nc1cccc(Cl)c1 [E7]
Average GP2a (relative fluorescence intensity, SRCR5/GP2a BiFC) [1]: 0.10 | Average GP4 (relative fluorescence intensity, SRCR5/GP4 BiFC) [2]: 0.69

COc1ccccc1NS(=O)(=O)c1cccc(Nc2nc3ccccc3nc2NS(=O)(=O)c2ccc(F)cc2C)c1 [F9]
Average GP2a (relative fluorescence intensity, SRCR5/GP2a BiFC) [1]: 0.03 | Average GP4 (relative fluorescence intensity, SRCR5/GP4 BiFC) [2]: 0.07 | antiviral potency, SAR comparison (in words) [3]: did not change at all

Cc1cc(F)ccc1S(=O)(=O)Nc1nc2ccccc2nc1Nc1cccc(Cl)c1Cl [F12]
Average GP2a (relative fluorescence intensity, SRCR5/GP2a BiFC) [1]: 0.31 | inhibition of the PPI between SRCR5-VN and GP2a-VC at pH 6.0 (in words) ([1]; pH 6.0): inhibit the PPI | interference with the PPI between GP4/SRCR5 (in words) [2]: does not effectively interfere | Average GP4 (relative fluorescence intensity, SRCR5/GP4 BiFC) [2]: 0.63 | inhibitory effect against PRRSV infection (in words) [3]: strong | antiviral potency, SAR comparison (in words) [3]: significantly increased antiviral effect; also recorded: antiviral potency nearly identical to B7

Cc1cc(F)ccc1S(=O)(=O)Nc1nc2ccccc2nc1Nc1cccc(Cl)c1C [E4]
Average GP2a (relative fluorescence intensity, SRCR5/GP2a BiFC) [1]: 0.12 | Average GP4 (relative fluorescence intensity, SRCR5/GP4 BiFC) [2]: 0.74

COc1ccc(Nc2nc3ccccc3nc2NS(=O)(=O)c2ccc(F)cc2C)cc1Cl [A3]
Average GP2a (relative fluorescence intensity, SRCR5/GP2a BiFC) [1]: 0.06 | Average GP4 (relative fluorescence intensity, SRCR5/GP4 BiFC) [2]: 0.43 | inhibitory effect against PRRSV infection (in words) [3]: mild | antiviral potency, SAR comparison (in words) [3]: significantly increased antiviral effect

Cc1ccc(S(=O)(=O)Nc2nc3ccccc3nc2Nc2cccc(S(=O)(=O)N3CCCC3)c2)cc1 [A7]
Average GP2a (relative fluorescence intensity, SRCR5/GP2a BiFC) [1]: 0.07 | Average GP4 (relative fluorescence intensity, SRCR5/GP4 BiFC) [2]: 0.53 | inhibitory effect against PRRSV infection (in words) [3]: strong | antiviral potency, SAR comparison (in words) [3]: significant drop of its antiviral potency

COc1ccc(NS(=O)(=O)c2cccc(Nc3nc4ccccc4nc3NS(=O)(=O)c3ccc(F)cc3C)c2)cc1 [E3]
Average GP2a (relative fluorescence intensity, SRCR5/GP2a BiFC) [1]: 0.10 | Average GP4 (relative fluorescence intensity, SRCR5/GP4 BiFC) [2]: 0.59 | inhibitory effect against PRRSV infection (in words) [3]: low activity | antiviral potency, SAR comparison (in words) [3]: near complete loss of antiviral-potency

Cc1ccccc1Nc1nc2ccccc2nc1NS(=O)(=O)c1ccc(F)cc1C [F7]
Average GP2a (relative fluorescence intensity, SRCR5/GP2a BiFC) [1]: 0.30 | Average GP4 (relative fluorescence intensity, SRCR5/GP4 BiFC) [2]: 0.96

O=S(=O)(Nc1nc2ccccc2nc1Nc1ccc(Cl)c(S(=O)(=O)N2CCOCC2)c1)c1ccccc1 [G10]
Average GP2a (relative fluorescence intensity, SRCR5/GP2a BiFC) [1]: 0.13 | Average GP4 (relative fluorescence intensity, SRCR5/GP4 BiFC) [2]: 0.80 | antiviral potency, SAR comparison (in words) [3]: mildly but significantly decreased
